Experiments:
in vitro [1] = details: chlorocebus sabaeus, vero
Description: Cytotoxicity against African green monkey Vero cells assessed as cell viability at 100 uM measured after 24 hrs by MTT assay relative to control

[2] = target: T1, Prostaglandin G/H synthase 2 (Homo sapiens, UniProt P35354)
T1 sequence (P35354 whole entry): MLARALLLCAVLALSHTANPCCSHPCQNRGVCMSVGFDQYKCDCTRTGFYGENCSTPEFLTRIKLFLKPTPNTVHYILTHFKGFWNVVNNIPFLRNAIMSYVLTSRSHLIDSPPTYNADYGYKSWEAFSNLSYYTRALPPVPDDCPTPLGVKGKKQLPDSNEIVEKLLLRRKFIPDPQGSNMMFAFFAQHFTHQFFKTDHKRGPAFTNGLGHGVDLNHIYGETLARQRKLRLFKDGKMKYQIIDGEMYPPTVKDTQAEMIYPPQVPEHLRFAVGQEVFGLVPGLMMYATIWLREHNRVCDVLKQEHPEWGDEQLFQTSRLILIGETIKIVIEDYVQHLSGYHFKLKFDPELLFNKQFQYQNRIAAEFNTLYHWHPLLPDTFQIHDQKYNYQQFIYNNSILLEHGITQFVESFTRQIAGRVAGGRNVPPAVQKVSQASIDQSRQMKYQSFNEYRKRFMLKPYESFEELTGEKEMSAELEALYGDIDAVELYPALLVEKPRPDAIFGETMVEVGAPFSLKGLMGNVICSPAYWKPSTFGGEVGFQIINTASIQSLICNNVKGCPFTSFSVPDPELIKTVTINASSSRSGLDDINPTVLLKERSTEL
Description: Inhibition of human COX-2 by colorimetric assay

[3] = target: T2, Prostaglandin G/H synthase 1 (Ovis aries, UniProt P05979)
T2 sequence (P05979 whole entry): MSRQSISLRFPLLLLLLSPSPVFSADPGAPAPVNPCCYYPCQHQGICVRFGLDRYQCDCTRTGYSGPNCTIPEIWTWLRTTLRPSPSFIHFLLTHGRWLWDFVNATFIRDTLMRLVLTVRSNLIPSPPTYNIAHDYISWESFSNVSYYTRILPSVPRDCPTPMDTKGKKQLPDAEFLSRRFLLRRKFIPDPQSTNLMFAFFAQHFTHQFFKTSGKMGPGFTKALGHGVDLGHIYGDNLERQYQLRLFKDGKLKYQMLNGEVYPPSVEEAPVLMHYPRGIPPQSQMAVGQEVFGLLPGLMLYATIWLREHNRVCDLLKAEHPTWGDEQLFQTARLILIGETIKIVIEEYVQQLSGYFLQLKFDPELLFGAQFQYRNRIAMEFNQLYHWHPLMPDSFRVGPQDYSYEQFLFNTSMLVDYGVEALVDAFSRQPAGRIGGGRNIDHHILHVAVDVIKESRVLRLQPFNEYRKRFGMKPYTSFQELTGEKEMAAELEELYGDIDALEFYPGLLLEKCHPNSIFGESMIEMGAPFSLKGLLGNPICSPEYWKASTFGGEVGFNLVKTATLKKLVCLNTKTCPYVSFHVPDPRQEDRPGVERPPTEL
Description: Inhibition of ovine COX-1 by colorimetric assay

Platelet = assay: cells; format: functional, cell-based; details: Homo sapiens, 2 min
Description: Antiplatelet activity in human platelets assessed as inhibition of arachidonic acid-induced platelet aggregation measured after 2 mins by turbidimetric analysis

[4] = target: T1, Prostaglandin G/H synthase 2; remark: listed apart in the source
Description: Inhibition of recombinant human COX-2 measured after 5 mins by absorbance based analysis

in vitro [5] = details: human, erythrocyte
Description: Hemolytic activity in human red blood cells assessed as hemolysis at 100 uM measured after 3 hrs by microplate reader assay relative to control

[6] = target: T1, Prostaglandin G/H synthase 2; remark: listed apart in the source
[7] = target: T2, Prostaglandin G/H synthase 1; remark: listed apart in the source
Description: Inhibition of ovine COX-1

[8] = target: T2, Prostaglandin G/H synthase 1; remark: listed apart in the source
Description: Inhibition of ovine COX-1 measured after 5 mins by absorbance based analysis

SMILES	IC50 [2]	IC50 [3]	further results
CCOc1ccc(-c2c(-c3ccc(OC)cc3)noc2C)cc1	> 50 µM	46 nM	viability at 24 h, 100 µM (in vitro [1]): 64%; IC50 (Platelet): 2.5 µM
Cc1onc(-c2ccc(OCc3ccccc3)cc2)c1-c1ccc(OCc2ccccc2)cc1	> 50 µM	> 50000 nM	
C=CCc1cccc(-c2nc(-c3ccccc3Cl)c(-c3ccccc3Cl)[nH]2)c1OC(=O)COC			IC50 [4]: > 100 µM
CCOc1ccc(-c2noc(CC(=O)O)c2-c2ccc(OCC)cc2)cc1	> 50 µM	120 nM	viability at 24 h, 100 µM (in vitro [1]): > 70%; hemolysis at 3 h, 100 µM (in vitro [5]): 0%; IC50 (Platelet): 0.7 µM
CC(=O)Oc1ccccc1C(=O)O [ASPIRIN]			IC50 (Platelet): 36.2 µM
CCOc1ccc(-c2noc(C)c2-c2ccc(OCC)cc2)cc1	> 50 µM	230 nM	viability at 24 h, 100 µM (in vitro [1]): > 70%; hemolysis at 3 h, 100 µM (in vitro [5]): 0%; IC50 (Platelet): 1 µM
COc1ccc(-c2noc(C)c2-c2ccc(OC(C)(C)C)cc2)cc1	> 50 µM	> 50000 nM	
CCCOc1ccc(-c2c(-c3ccc(OC)cc3)noc2CC(=O)O)cc1	6.9 µM	79 nM	viability at 24 h, 100 µM (in vitro [1]): > 70%; hemolysis at 3 h, 100 µM (in vitro [5]): 0%; IC50 (Platelet): 72.1 µM
CCCOc1ccc(-c2c(-c3ccc(OC)cc3)noc2C)cc1	> 50 µM	1300 nM	hemolysis at 3 h, 100 µM (in vitro [5]): 0%
CCCCOc1ccc(-c2noc(C)c2-c2ccc(OCCCC)cc2)cc1	> 50 µM	> 50000 nM	
CCOc1ccc(N)cc1C(=O)Nc1cccc(C(F)(F)F)c1			IC50 [6]: > 100 µM; IC50 [7]: 3200 nM
Cc1onc(-c2ccc(OC(C)(C)C)cc2)c1-c1ccc(OC(C)(C)C)cc1	> 50 µM	> 50000 nM	
CCCCOc1ccc(-c2c(-c3ccc(OC)cc3)noc2C)cc1	> 50 µM	> 50000 nM	
Cc1onc(-c2ccc(Cl)o2)c1-c1ccccc1			IC50 [6]: > 100 µM
COc1ccc(-c2noc(C)c2-c2ccc(OCc3ccccc3)cc2)cc1	> 50 µM	> 50000 nM	
CCc1onc(-c2ccccc2)c1-c1ccccc1			IC50 [6]: > 1.49 µM; IC50 [7]: 50 nM

SMILES	IC50 [2]	IC50 [3]	further results
CCOc1ccc(-c2c(-c3ccc(OC)cc3)noc2CC(=O)O)cc1	> 50 µM	120 nM	viability at 24 h, 100 µM (in vitro [1]): > 70%; hemolysis at 3 h, 100 µM (in vitro [5]): 0%; IC50 (Platelet): 29.5 µM
COc1ccc(-c2nc(C(=O)N3CCN(C)CC3)sc2-c2ccc(OC)cc2)cc1 [FR-122047]			IC50 [7]: 28 nM
COc1ccc(-c2noc(CC(=O)O)c2-c2ccc(Oc3ccccc3)cc2)cc1	> 50 µM	> 50000 nM	
O=C(O)Cc1onc(-c2ccc(OCc3ccccc3)cc2)c1-c1ccc(OCc2ccccc2)cc1	> 50 µM	> 50000 nM	
CCCCOc1ccc(-c2c(-c3ccc(OC)cc3)noc2CC(=O)O)cc1	0.45 µM	320 nM	
CCCOc1ccc(-c2noc(C)c2-c2ccc(OCCC)cc2)cc1	> 50 µM	> 50000 nM	
O=C(O)Cc1onc(-c2ccc(Oc3ccccc3)cc2)c1-c1ccc(Oc2ccccc2)cc1	> 50 µM	> 50000 nM	
COc1ccc(-c2noc(CC(=O)O)c2-c2ccc(OC(C)(C)C)cc2)cc1	> 50 µM	> 50000 nM	
Cc1onc(-c2ccc(Oc3ccccc3)cc2)c1-c1ccc(Oc2ccccc2)cc1	> 50 µM	> 50000 nM	
COc1ccc(-c2noc(C)c2-c2ccc(Oc3ccccc3)cc2)cc1	> 50 µM	> 50000 nM	
Cc1onc(-c2ccccc2)c1-c1ccccc1			IC50 [7]: 90 nM
C=CCc1cccc(-c2nc(-c3ccccc3Cl)c(-c3ccccc3Cl)[nH]2)c1OC(C)=O			IC50 [4]: > 100 µM; IC50 [8]: > 100 µM
CC(C)(C)Oc1ccc(-c2noc(CC(=O)O)c2-c2ccc(OC(C)(C)C)cc2)cc1	> 50 µM	> 50000 nM	
CCCCOc1ccc(-c2noc(CC(=O)O)c2-c2ccc(OCCCC)cc2)cc1	> 50 µM	53 nM	viability at 24 h, 100 µM (in vitro [1]): > 70%; hemolysis at 3 h, 100 µM (in vitro [5]): 0%; IC50 (Platelet): > 100 µM
CCCOc1ccc(-c2noc(CC(=O)O)c2-c2ccc(OCCC)cc2)cc1	3.6 µM	> 50000 nM	
COc1ccc(-c2noc(CC(=O)O)c2-c2ccc(OCc3ccccc3)cc2)cc1	> 50 µM	450 nM	viability at 24 h, 100 µM (in vitro [1]): > 70%; hemolysis at 3 h, 100 µM (in vitro [5]): 0%; IC50 (Platelet): > 100 µM

Source: ChEMBL document CHEMBL5543077, “A further pocket or conformational plasticity by mapping COX-1 catalytic site through modified-mofezolac structure-inhibitory activity relationships and their antiplatelet behavior” (Eur J Med Chem, 2024)
